Square brackets hold non-standard residues; d marks the D form. Peptide text beside a SMILES is read from it. ξ: configuration not given here. dPip = O=C(O)[C@H]1CCCCN1; dThz = O=C(O)[C@H]1CSCN1; ξAze = O=C(O)C1CCN1
Tests used:
[1] = Index of Bioavailability (plasma thrombin time AUC, oral vs i.v.); type: in vivo; settings: rats; dose-adjusted AUC of plasma TT time course, p.o. vs i.v. bolus
Text: Assays are done in duplicate and averaged.
Each sample population represents alternating sequential time points.

[2] = target: human thrombin (Homo sapiens, UniProt P00734); test: Human thrombin inhibition (amidase activity, chromogenic substrate; Kass); settings: purified human thrombin, mean over a range of concentrations
Experimental: Standard curves are constructed by plotting free thrombin concentration against hydrolysis rate. […] The amount of free inhibitor in each assay is calculated by subtracting the number of moles of bound thrombin from the number of moles of added inhibitor (test compound).
Kass is calculated for a range of concentrations of test compounds and the mean value reported in units of liter per mole.

[3] = system: thrombin; settings: Bajusz et al., J. Med. Chem., 33, 1729-1735 (1990); cited from earlier work
[4] = early clinical studies, Simoons et al.; cited from earlier work
[5] = Pharmacokinetic model in dogs, single oral dose; type: in vivo, dogs (Beagles); settings: single 2 mg/kg oral dose
Experimental: Male dogs (Beagles; 18 months-2 years; 12-13 kg, Marshall Farms, North Rose, N.Y. 14516) are fasted overnight and fed Purina certified Prescription Diet (Purina Mills, St. Louis, Miss.) 240 minutes after dosing. Water is available ad libitum. The room temperature is maintained between 66°-74° F.; 45-50 percent relative humidity; and lighted from 0600-1800 hours.
Test compound is formulated immediately prior to dosing by dissolving in sterile 0.9 percent saline to a 5 mg/ml preparation. Dogs are given a single 2 mg/kg dose of test compound by oral garage. Blood samples (4.5 ml) are taken from the cephalic vein at 0.25, 0.5, 0.75, 1,2,3,4 and 6 hours after dosing. Samples are collected in citrated Vacutainer tubes and kept on ice prior to reduction to plasma by centrifugation. Plasma samples are derivatized with dinitrophenylhydrazine and analyzed by HPLC (Zorbax SB-C8 column) eluting with methanol/500 mM sodium acetate adjusted to pH7 with phosphoric acid (60:40, v/v). Plasma concentration of test compound is recorded and used to calculate the pharmacokinetic parameters: elimination rate constant, Ke; total clearance, Clt; volume of distribution, VD; time of maximum plasma test compound concentration, Tmax; maximum concentration of test compound of Tmax, Cmax; plasma half-life, t0.5; and area under the curve, A.U.C.; fraction of test compound absorbed, F.

[6] = Template Bleeding Time assay (gingival); type: in vivo, dog; settings: 0.25, 0.50 and 1.0 mg/kg.hr; over a 240 minute time
Experimental: Whole blood cell counts, hemoglobin, and hematocrit values are determined on a 40-μl sample of citrated (3.8 percent) blood (1 part citrate:9 parts blood) with a hematology analyzer (Cell-Dyn 900, Sequoia-Turner. Mount View, Calif., U.S.A.). Gingival template bleeding times are determined with a Simplate II bleeding time device (Organon Teknika Durham, N.C., U.S.A.). The device is used to make 2 horizontal incisions in the gingiva of either the upper or lower left jaw of the dog. Each incision is 3 mm wide×2 mm deep. The incisions are made, and a stopwatch is used to determine how long bleeding occurs. A cotton swab is used to soak up the blood as it oozes from the incision. Template bleeding time is the time from incision to stoppage of bleeding. Bleeding times are taken just before administration of test compound (0 min), 60 min into infusion, at conclusion of administration of the test compound (120 min), and at the end of the experiment.
All data are analyzed by one-way analysis of variance (ANOVA) followed by Student-Neuman-Kuels post hoc t test to determine the level of significance. Repeated-measures ANOVA are used to determine significant differences between time points during the experiments. Values are determined to be statistically different at least at the level of p<0.05. All values are mean ±SEM. […]

Cl.Cl.N=C(N)NCCC[C@@H](C=O)NC(=O)[C@@H]1CCCN1C(=O)C1NCCCC2CCCCC21 (mixture of isomers) [Example 8, DL-cis-3-aza-bicyclo[5.4.0]undecanyl-2-carbonyl-L-prolinyl-L-arginine aldehyde dihydrochloride]
Percent Relative Activity (Index of Bioavailability) [1]: 43% | Kass × 10^6 (l/mole) [2]: 595 × 10^6 l/mole

Cl.Cl.Cl.N=C(N)NCCC[C@@H](C=O)NC(=O)[C@@H]1CCCN1C(=O)[C@H]1C[C@@H](Oc2ccccc2)CN1.O (relative stereo) [Example 12, D-Cis-(4-phenoxy) Prolinyl-L-Prolinyl-L-Arginine Aldehyde Trihydrochloride Monohydrate]
Percent Relative Activity (Index of Bioavailability) [1]: 16% | Kass × 10^6 (l/mole) [2]: 25 × 10^6 l/mole

CC(C)(C)OC(=O)N[C@H](Cc1ccccc1)C(=O)N1CCC[C@H]1C(=O)N[C@H](C=O)CCCNC(=N)N [Boc-D-Phe-Pro-Arg-H]
direct inhibition of thrombin [3]: potent direct inhibition of thrombin

CN[C@H](Cc1ccccc1)C(=O)N1CCC[C@H]1C(=O)N[C@H](C=O)CCCNC(=N)N.O=S(=O)(O)O [D-MePhe-Pro-Arg-H sulfate]
anticoagulant in man [4]: is an anticoagulant in man

CN[C@H](Cc1ccccc1)C(=O)N1CCC[C@H]1C(=O)N[C@H](C=O)CCCNC(=N)N [D-MePhe-Pro-Arg-H]
direct inhibition of thrombin [3]: potent direct inhibition of thrombin

N=C(N)NCCC[C@@H](C=O)NC(=O)[C@@H]1CCCN1C(=O)[C@H](N)Cc1ccccc1 [D-Phe-Pro-Arg-H]
direct inhibition of thrombin [3]: potent direct inhibition of thrombin

Cl.Cl.N=C(N)NCCC[C@@H](C=O)NC(=O)[C@@H]1CCCN1C(=O)[C@H]1CCCCN1 [Example 1, D-Homoprolinyl-L-Prolinyl-L-Arginine Aldehyde Dihydrochloride] (H-[dPip]-Pro-Arg-aldehyde)
Percent Relative Activity (Index of Bioavailability) [1]: 38% | A.U.C. o-infinity [5]: 4651 ng·h/mL | Cmax [5]: 1676 ng/mL | Ke (elimination rate constant) [5]: 0.0104 min⁻¹ | Tmax [5]: 1 to 2 h | VD/F (volume of distribution) [5]: 0.729 L/kg | t0.5 (plasma half-life) [5]: 1.12 h | effect on template bleeding time [6]: no significant effect on template bleeding time | Kass × 10^6 (l/mole) [2]: 46 × 10^6 l/mole

Cl.Cl.N=C(N)NCCC[C@@H](C=O)NC(=O)C1CCN1C(=O)[C@H]1CCCCN1 (stereo partly drawn) [Example 3, D-Homoprolinyl-L-Azetidinyl-L-Arginine Aldehyde Dihydrochloride] (H-[dPip]-[ξAze]-Arg-aldehyde)
Percent Relative Activity (Index of Bioavailability) [1]: 32% | Kass × 10^6 (l/mole) [2]: 45 × 10^6 l/mole

Cl.Cl.N=C(N)NCCC[C@@H](C=O)NC(=O)[C@@H]1CCCN1C(=O)[C@H]1CSCN1 [Example 4, D-Thiazolidinyl-4-Carbonyl-L-Prolinyl-L-Arginine Aldehyde Dihydrochloride] (H-[dThz]-Pro-Arg-aldehyde)
Percent Relative Activity (Index of Bioavailability) [1]: 16% | Kass × 10^6 (l/mole) [2]: 5 × 10^6 l/mole

CC(C)C1N[C@@H](C(=O)N2CCC[C@H]2C(=O)N[C@H](C=O)CCCNC(=N)N)C(C)(C)S1.Cl.Cl (stereo partly drawn) [Example 5, D-2-Isopropyl-5,5-Dimethylthiazolidinyl-4-Carbonyl-L-Prolinyl-L-Arginine Aldehyde Dihydrochloride]
Kass × 10^6 (l/mole) [2]: 4 × 10^6 l/mole

Cl.Cl.Cl.N=C(N)NCCC[C@@H](C=O)NC(=O)[C@@H]1CCCN1C(=O)[C@H]1C[C@H](Oc2ccc3ccccc3c2)CN1.O [Example 6, trans-4-(2-Naphthyloxy)-D-Prolinyl-L-Prolinyl-L-Arginine Aldehyde Trihydrochloride Monohydrate]
Kass × 10^6 (l/mole) [2]: 21 × 10^6 l/mole

Cl.Cl.N=C(N)NCCC[C@@H](C=O)NC(=O)[C@@H]1CCCN1C(=O)C1CNCCN1 (stereo partly drawn) [Example 9, D,L-Piperazin-2-oyl-L-Prolinyl-L-Arginine Aldehyde Dihydrochloride]
Percent Relative Activity (Index of Bioavailability) [1]: 19% | Kass × 10^6 (l/mole) [2]: 121 × 10^6 l/mole

Cl.Cl.N=C(N)NCCC[C@@H](C=O)NC(=O)[C@@H]1CCCN1C(=O)C1NCCS1 (stereo partly drawn) [Example 10, D,L-Thiazolidinyl-2-carbonyl-L-prolinyl-L-arginine aldehyde dihydrochloride]
Percent Relative Activity (Index of Bioavailability) [1]: 5% | Kass × 10^6 (l/mole) [2]: 27 × 10^6 l/mole

Cl.Cl.Cl.N=C(N)NCCC[C@@H](C=O)NC(=O)[C@@H]1CCCN1C(=O)[C@H]1C[C@H](Sc2ccccc2)CN1.O.O.O [Example 14, trans-4-phenylthio-D-prolinyl-L-prolinyl-L-arginine aldehyde trihydrochloride trihydrate]
Kass × 10^6 (l/mole) [2]: 37 × 10^6 l/mole

D-Prolinyl-L-Prolinyl-L-Arginine Aldehyde Dihydrochloride [Example 2]
Percent Relative Activity (Index of Bioavailability) [1]: 36% | Kass × 10^6 (l/mole) [2]: 12 × 10^6 l/mole
